Test results published in US11306084B2, “Integrin antagonists” (Saint Louis University, priority 2016, dated 2022).
Where a name gives a salt, the structure may show the parent alone.

Key:
Type in all cases: binding
[1] = target: T1, Recombinant human integrin ανβ3 (Homo sapiens, UniProt P05106+P06756); experiment: Solid Phase Receptor Assay (SPRA) for ανβ3 function; conditions: plate-bound human vitronectin; read-out: αvβ3 SPRA IC50
T1 construct: purchased R&D Systems 3050-AV
Procedure: C. Solid Phase Receptor Assay (SPRA) for ανβ3 Function
(§1) Wells were washed 3 times with 150 μL TBS+ and then 150 μL of blocking buffer (TBS+ with 1% bovine serum albumin, Sigma A7906) was added. The plate was incubated for 1 hr at 37° C. and then washed 3× with TBS+ buffer. […] Compounds were diluted to 20 μM and then 1 μL was added to each well of the plate according to a standard template with each sample repeated in triplicate. After incubation for two hours at room temperature, the plate was washed 3× with 150 μL of TBS+ buffer. To each well, 50 μL of biotinylated anti-αν antibody (R&D Systems, BAF1219) at 0.5 μg/mL in TBS+/0.1% BSA were added and the plate covered and incubated for 1 hr at room temperature. After washing the plate 3× with 150 μL of TBS+ buffer, 50 μL of streptavidin-conjugated horseradish peroxidase (R&D Systems, DY998) diluted in TBS+ blocking buffer were added to the wells and the plate incubated for 20 min at room temperature. The plate was washed 3× with TBS+ buffer followed by 50 μL of TMB substrate (Sigma, T4444) added to each well in the dark and the plate was incubated for 25 min at room temperature. 25 μL of 1.0 M phosphoric acid was added as a stop solution and the plates were read at 450 nm using a Spectramax plate reader.

[2] = target: T2, Recombinant human integrin ανβ5 (Homo sapiens, UniProt P06756+P18084); experiment: Solid Phase Receptor Assay (SPRA) for ανβ5 function; conditions: plate-bound human vitronectin; read-out: αvβ5 SPRA IC50
T2 construct: purchased R&D Systems 2528-AV
T2 sequence (P06756 31-992 limits assumed): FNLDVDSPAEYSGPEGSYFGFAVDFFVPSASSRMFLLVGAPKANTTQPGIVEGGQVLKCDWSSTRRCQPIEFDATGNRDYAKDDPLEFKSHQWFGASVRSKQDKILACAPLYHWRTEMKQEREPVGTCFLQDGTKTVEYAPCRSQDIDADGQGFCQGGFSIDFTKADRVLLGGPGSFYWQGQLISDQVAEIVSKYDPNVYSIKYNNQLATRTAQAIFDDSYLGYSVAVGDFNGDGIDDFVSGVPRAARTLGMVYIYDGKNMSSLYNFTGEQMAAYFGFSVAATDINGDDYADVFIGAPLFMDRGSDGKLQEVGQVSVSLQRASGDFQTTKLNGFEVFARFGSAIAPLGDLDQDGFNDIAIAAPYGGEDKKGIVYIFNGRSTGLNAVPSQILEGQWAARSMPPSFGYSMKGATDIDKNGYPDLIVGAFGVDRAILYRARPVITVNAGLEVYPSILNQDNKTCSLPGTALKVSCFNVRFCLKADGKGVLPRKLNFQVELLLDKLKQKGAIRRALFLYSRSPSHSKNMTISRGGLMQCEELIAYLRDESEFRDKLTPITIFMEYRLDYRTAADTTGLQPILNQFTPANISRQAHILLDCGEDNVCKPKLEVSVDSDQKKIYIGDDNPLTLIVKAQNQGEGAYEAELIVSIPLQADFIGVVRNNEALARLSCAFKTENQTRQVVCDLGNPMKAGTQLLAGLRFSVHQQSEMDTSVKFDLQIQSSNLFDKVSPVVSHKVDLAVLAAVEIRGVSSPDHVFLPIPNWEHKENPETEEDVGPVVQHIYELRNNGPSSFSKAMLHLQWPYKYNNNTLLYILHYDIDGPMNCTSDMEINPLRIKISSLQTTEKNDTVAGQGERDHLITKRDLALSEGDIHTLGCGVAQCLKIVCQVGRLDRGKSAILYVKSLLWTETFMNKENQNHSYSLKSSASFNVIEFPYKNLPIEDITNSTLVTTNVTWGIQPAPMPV
T2 sequence (P18084 24-719 limits assumed): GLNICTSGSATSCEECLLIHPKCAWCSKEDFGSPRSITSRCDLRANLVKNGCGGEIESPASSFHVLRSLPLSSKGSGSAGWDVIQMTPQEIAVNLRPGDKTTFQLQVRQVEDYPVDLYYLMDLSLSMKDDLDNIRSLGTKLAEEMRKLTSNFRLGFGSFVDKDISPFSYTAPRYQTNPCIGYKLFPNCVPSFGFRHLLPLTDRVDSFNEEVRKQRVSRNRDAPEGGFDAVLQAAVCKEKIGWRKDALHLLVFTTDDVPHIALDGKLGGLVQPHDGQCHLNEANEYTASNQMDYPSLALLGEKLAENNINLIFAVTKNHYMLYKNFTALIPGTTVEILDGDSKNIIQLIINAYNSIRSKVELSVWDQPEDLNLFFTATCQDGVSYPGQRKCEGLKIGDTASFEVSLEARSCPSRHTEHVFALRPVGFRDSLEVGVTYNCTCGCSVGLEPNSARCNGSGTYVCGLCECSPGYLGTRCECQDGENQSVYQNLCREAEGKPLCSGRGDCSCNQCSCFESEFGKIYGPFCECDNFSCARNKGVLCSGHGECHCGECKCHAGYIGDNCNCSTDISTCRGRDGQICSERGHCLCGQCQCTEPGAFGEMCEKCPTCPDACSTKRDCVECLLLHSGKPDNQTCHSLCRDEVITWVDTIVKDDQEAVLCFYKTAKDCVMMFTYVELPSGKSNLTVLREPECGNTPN
Procedure: D. Solid Phase Receptor Assay (SPRA) for ανβ5 Function
Wells were washed 3 times with 150 μL TBS+ and then 150 μL of blocking buffer (TBS+ with 1% bovine serum albumin, Sigma A7906) was added. The plate was incubated for 1 hr at 37° C. and then washed 3× with TBS+ buffer. […] Compounds were diluted to 20 μM and then 1 μL was added to each well of the plate according to a standard template with each sample repeated in triplicate. After incubation for two hours at room temperature, the plate was washed 3× with 150 μL of TBS+ buffer. To each well, 50 μl of biotinylated anti-αν antibody (R&D Systems, BAF1219) at 0.5 μg/mL in TBS+/0.1% BSA at 0.5 μg/mL were added and the plate covered and incubated for 1 hr at room temperature. After washing the plate 3 with 150 μL of TBS+ buffer, 50 μL of streptavidin-conjugated horseradish peroxidase (R&D Systems, DY998) diluted in TBS+ blocking buffer were added to the wells and the plate incubated for 20 min at room temperature. The plate was washed 3× with TBS+ buffer followed by 50 μL of TMB substrate (Sigma T4444) added to each well in the dark and the plate incubated for 5 min at room temperature. 25 μL of 1.0 M phosphoric acid was added as a stop solution and the plates were read at 450 nm using a Spectramax plate reader.

[3] = target: T3, Recombinant human integrin ανβ6 (Homo sapiens, UniProt P06756+P18564); experiment: Solid Phase Receptor Assay (SPRA) for ανβ6 function; conditions: plate-bound human LAP; read-out: αvβ6 SPRA IC50
T3 construct: purchased R&D Systems 3817-AV
T3 sequence (P06756 31-992 limits assumed): as the sequence (P06756 31-992 limits assumed) above
T3 sequence (P18564 22-707 limits assumed): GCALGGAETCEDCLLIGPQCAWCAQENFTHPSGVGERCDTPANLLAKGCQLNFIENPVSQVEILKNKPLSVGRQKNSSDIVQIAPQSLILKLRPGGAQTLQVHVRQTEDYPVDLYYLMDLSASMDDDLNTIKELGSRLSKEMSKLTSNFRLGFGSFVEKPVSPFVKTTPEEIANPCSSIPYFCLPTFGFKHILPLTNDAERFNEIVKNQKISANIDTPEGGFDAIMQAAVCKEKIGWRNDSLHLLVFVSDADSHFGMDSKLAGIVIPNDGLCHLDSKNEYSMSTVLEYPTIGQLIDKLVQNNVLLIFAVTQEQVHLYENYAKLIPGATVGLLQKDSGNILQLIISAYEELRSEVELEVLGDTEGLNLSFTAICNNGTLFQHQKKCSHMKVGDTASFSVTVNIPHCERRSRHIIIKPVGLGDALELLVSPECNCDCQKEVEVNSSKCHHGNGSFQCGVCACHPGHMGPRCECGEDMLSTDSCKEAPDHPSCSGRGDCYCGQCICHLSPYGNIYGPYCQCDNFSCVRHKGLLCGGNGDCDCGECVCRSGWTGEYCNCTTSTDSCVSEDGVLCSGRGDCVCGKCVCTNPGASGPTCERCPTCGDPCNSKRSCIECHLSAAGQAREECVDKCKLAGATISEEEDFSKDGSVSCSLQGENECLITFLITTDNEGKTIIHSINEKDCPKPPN
Procedure: E. Solid Phase Receptor Assay (SPRA) for ανβ6 Function
Wells were washed 3 times with 150 μL TBS+, and then 150 μL of blocking buffer (TBS+ with 1% bovine serum albumin, Sigma A7906) was added. The plate was incubated for 1 hr at 37° C., and then washed 3× with TBS+ buffer. […] Compounds were diluted to 20 μM and then 1 μL was added to each well of the plate according to a standard template with each sample repeated in triplicate. After incubation for two hours at room temperature, the plate was washed 3× with 150 μL of TBS+ buffer. To each well, 50 μL of biotinylated anti-αν antibody (R&D Systems, BAF1219) at 0.5 μg/mL in TBS+/0.1% BSA were added and the plate was covered and incubated for 1 hr at room temperature. After washing the plate 3× with 150 μL of TBS+ buffer, 50 μL of streptavidin-conjugated horseradish peroxidase (R&D Systems, DY998) diluted in TBS+ blocking buffer were added to the wells and the plate incubated for 20 min at room temperature. The plate was washed 3× with TBS+ buffer followed by 50 μL of TMB substrate (Sigma T4444) added to each well in the dark and the plate incubated for 10 min at room temperature. 25 μL of 1.0 M phosphoric acid was added as a stop solution and the plates were read at 450 nm using a Spectramax plate reader.

[4] = target: T4, Recombinant human integrin ανβ8 (Homo sapiens, UniProt P06756+P26012); experiment: Solid Phase Receptor Assay (SPRA) for ανβ8 function; conditions: plate-bound human LAP; read-out: αvβ8 SPRA IC50
T4 construct: purchased R&D Systems 4135-AV
T4 sequence (P06756 31-992 limits assumed): as the sequence (P06756 31-992 limits assumed) above
T4 sequence (P26012 43-684 limits assumed): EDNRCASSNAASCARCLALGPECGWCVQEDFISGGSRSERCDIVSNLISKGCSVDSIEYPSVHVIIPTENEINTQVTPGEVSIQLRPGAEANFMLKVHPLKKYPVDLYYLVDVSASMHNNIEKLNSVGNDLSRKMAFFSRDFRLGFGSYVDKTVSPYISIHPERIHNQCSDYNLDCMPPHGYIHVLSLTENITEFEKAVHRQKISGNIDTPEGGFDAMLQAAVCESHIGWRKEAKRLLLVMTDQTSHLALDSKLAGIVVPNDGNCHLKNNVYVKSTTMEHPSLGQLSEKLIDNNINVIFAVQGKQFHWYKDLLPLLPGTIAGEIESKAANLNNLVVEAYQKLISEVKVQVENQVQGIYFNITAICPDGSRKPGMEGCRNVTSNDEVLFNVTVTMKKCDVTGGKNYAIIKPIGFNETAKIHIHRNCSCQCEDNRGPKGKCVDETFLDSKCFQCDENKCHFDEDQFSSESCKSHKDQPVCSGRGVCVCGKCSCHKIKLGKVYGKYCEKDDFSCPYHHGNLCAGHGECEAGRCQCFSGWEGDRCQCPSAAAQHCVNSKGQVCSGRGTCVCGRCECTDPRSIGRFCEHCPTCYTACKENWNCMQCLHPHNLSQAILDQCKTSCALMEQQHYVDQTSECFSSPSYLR
Procedure: F. Solid Phase Receptor Assay (SPRA) for ανβ8 Function
Wells were washed 3 times with 150 μL TBS+ and then 150 μL of blocking buffer (TBS+ with 1% bovine serum albumin, Sigma A7906) was added. The plate was incubated for 1 hr at 37° C. and then washed 3× with TBS+. […] Compounds were diluted to 20 μM and 1 μL was added to each well of the plate according to a standard template with each sample repeated in triplicate. After incubation for two hours at room temperature, the plate was washed 3× with 150 μL of TBS+. To each well, 50 μL of biotinylated anti-αν antibody (R&D Systems, BAF1219) at 1 μg/mL in TBS+/0.1% BSA were added and the plate was covered and incubated for 1 hr at room temperature. After washing the plate 3× with 150 μL. of TBS+ buffer, 50 μL of streptavidin-conjugated horseradish peroxidase (R&D Systems, DY998) diluted in TBS+ blocking buffer were added to the wells and the plate incubated for 20 min at room temperature. The plate was washed 3× with TBS+ followed by 50 μL of TMB substrate (Sigma T4444) added to each well in the dark and the plate incubated for 10 min at room temperature. 25 μL of 1.0 M phosphoric acid was added as a stop solution and the plates were read at 450 nm using a Spectramax plate reader.

[5] = target: T5, Recombinant human integrin ανβ1 (Homo sapiens, UniProt P05556+P06756); experiment: Solid Phase Receptor Assay (SPRA) for ανβ1 function; conditions: plate-bound human fibronectin; read-out: αvβ1 SPRA IC50
T5 construct: purchased R&D Systems 6579-AV
T5 sequence (P06756 31-992 limits assumed): as the sequence (P06756 31-992 limits assumed) above
T5 sequence (P05556 21-728 limits assumed): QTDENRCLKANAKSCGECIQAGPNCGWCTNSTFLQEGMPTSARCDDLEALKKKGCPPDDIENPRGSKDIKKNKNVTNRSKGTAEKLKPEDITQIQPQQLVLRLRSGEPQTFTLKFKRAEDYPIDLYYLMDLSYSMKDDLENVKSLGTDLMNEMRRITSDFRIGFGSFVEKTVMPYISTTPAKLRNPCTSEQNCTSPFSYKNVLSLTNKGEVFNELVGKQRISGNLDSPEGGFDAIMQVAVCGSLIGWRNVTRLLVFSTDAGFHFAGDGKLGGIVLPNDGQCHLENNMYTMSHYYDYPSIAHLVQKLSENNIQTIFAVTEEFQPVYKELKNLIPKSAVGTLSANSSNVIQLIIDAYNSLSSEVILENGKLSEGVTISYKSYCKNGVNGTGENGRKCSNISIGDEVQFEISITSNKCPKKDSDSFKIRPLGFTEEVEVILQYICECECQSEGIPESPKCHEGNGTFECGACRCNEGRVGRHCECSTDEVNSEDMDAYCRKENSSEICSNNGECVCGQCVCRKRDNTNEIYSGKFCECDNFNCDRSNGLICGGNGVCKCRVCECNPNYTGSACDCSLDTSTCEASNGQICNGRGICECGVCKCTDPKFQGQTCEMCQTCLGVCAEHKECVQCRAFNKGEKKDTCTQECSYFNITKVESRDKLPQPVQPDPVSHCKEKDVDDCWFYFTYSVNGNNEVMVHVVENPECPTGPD
Procedure: B. Solid Phase Receptor Assay (SPRA) for ανβ1 Function
as §1, with “μM and 1 μL” for “μM and then 1 μL”, “was washed 3 with 150” for “was washed 3× with 150”, “BAF1219) at 1 μg/mL in” for “BAF1219) at 0.5 μg/mL in”, “the plate incubated for” for “the plate was incubated for”

[6] = target: T6, Recombinant human integrin α5β1 (Homo sapiens, UniProt P05556+P08648); experiment: Solid Phase Receptor Assay (SPRA) for α5β1 function; conditions: plate-bound human fibronectin
T6 construct: purchased R&D Systems 3230-A5
Procedure: A. Solid Phase Receptor Assay (SPRA) for α5β1 Function
Wells were washed 3 times with 150 μL TBS+ and then 150 μL of blocking buffer (TBS+ with 1% bovine serum albumin, Sigma A7906) was added. The plate was incubated for 1 hr at 37° C. and then washed 3× with TBS+ buffer. […] Compounds were diluted to 20 μM and then 1 μL was added to each well of the plate according to a standard template with each sample repeated in triplicate. After incubation for two hours at room temperature, the plate was washed 3× with 150 μL of TBS+ buffer. To each well, 50 μL of biotinylated anti-α5 antibody (R&D Systems, BAF1864) at 0.5 μg/mL in TBS+/0.1% BSA were added and the plate covered and incubated for 1 hr at room temperature. After washing the plate 3× with 150 μL of TBS+ buffer, 50 μL of streptavidin-conjugated horseradish peroxidase (R&D Systems, DY998) diluted in TBS+ blocking buffer were added to the wells and the plate incubated for 20 min at room temperature. The plate was washed 3× with TBS+ buffer followed by 50 μL of room temperature TMB substrate (Sigma, T4444) added to each well in the dark and the plate incubated for 25 min at room temperature. 25 μL of 1.0 M phosphoric acid was added as a stop solution and the plates were read at 450 nm using a Spectramax plate reader.

T1 sequence (P06756 31-992 limits assumed): as the sequence (P06756 31-992 limits assumed) above
T1 sequence (P05106 27-718 limits assumed): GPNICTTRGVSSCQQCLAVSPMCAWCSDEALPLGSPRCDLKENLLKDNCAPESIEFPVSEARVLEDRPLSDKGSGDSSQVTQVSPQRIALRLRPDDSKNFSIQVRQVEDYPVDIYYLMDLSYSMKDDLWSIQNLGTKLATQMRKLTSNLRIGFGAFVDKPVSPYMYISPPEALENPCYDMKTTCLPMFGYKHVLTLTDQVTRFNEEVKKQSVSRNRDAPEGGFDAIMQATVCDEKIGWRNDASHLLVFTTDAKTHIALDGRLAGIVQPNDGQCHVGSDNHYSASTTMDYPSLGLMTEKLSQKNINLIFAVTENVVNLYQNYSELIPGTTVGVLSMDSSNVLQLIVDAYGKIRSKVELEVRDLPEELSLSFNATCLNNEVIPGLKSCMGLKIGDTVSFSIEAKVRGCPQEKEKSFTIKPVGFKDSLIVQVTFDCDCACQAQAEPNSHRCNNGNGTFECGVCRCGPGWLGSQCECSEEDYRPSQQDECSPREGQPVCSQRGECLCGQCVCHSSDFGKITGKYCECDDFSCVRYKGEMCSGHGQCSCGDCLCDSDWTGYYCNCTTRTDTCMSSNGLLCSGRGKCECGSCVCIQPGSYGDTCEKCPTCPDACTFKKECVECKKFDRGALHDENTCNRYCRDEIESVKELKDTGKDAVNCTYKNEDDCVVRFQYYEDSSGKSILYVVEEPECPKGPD

SMILES	IC50 [1]	IC50 [2]	IC50 [3]	IC50 [4]	IC50 [5]	IC50 [6]
Cn1nc(CC(CC(=O)O)c2cc(C#N)cc(C(F)(F)F)c2)cc1OCCc1ccc2c(n1)NCCC2 (stereo not drawn) [Example 12, 3-(3-cyano-5-(trifluoromethyl)phenyl)-4-(1-methyl-5-(2-(5,6,7,8-tetrahydro-1,8-naphthyridin-2-yl)ethoxy)-1H-pyrazol-3-yl)butanoic Acid]	4.3 nM	0.1 nM	27 nM	14 nM	4.5 nM	
CC(C)Oc1ccc(C(C)(C)C)cc1C(CC(=O)O)Cc1cc(OCCc2ccc3c(n2)NCCC3)n(C)n1 (stereo not drawn) [Example 35, 3-(5-tert-butyl-2-isopropoxy-phenyl)-4-[1-methyl-5-[2-(5,6,7,8-tetrahydro-1,8-naphthyridin-2-yl)ethoxy]pyrazol-3-yl]butanoic Acid Trifluoroacetate]			1100 nM	120 nM	7.6 nM	75 nM
